These results are taken from PMC3597463 (Analytical chemistry, 2013).

Data set [1] concerns Torpedo marmorata nicotinic acetylcholine receptor (nAChR). In words: nAChR/microsphere-based inhibition assay. It is filed as binding. As to conditions: for IC50 expressed as level in shellfish meat: assuming 100% recoveries; for Interference with the Luminex nAChR-based assay: restated in discussion, concentration not given there.
The subject of data set [2] is mice. As to conditions: cited from earlier work; for oral LD50: mice; for LD50: fed to fasted mice.
The format of data set [3] is physicochemical. As to conditions: for % Recovery (toxin detected after storage versus freshly analyzed samples): 7 ng/ml, 4 weeks.
The subject of data set [4] is nAChR. The note with it: chemiluminescence assay; cited from earlier work.
In data set [5] the test system is nAChR. The note with it: fluorescence polarization assay; cited from earlier work. For orientation: Fluorescence polarisation rises when a labelled molecule tumbles more slowly, as on binding a larger partner.
In data set [6] the test system is Lymnaea stagnalis acetylcholine binding protein (Ls-AChBP). Put plainly: Ls-AChBP/microsphere-based inhibition assay. As to conditions: buffer.
For data set [7], the system named is mice. As to conditions: fed to fasted mice, from reported LD50.
For data set [8], the system named is nAChR. As to conditions: cited from earlier work.
Data set [9] has as its target Torpedo marmorata nicotinic acetylcholine receptor (Torpedo marmorata) (UniProt P02711). In words: […].
The target in data set [10] is Acetylcholine binding protein from Lymnaea stagnalis (Lymnaea stagnalis, UniProt P58154 20-229). Put plainly: […].

Where two headings read alike, the source gives them in different places. Where only a bound is given, the exact number is not on record here.

Acetylcholine binding protein from Lymnaea stagnalis, sequence (P58154 20-229): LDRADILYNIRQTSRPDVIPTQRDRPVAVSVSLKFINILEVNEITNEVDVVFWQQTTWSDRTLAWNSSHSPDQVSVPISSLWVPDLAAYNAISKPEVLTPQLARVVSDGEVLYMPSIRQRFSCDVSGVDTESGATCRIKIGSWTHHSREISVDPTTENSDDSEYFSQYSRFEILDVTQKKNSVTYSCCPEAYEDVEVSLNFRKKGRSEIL
Torpedo marmorata nicotinic acetylcholine receptor (Torpedo marmorata), sequence (P02711 whole entry, looked up): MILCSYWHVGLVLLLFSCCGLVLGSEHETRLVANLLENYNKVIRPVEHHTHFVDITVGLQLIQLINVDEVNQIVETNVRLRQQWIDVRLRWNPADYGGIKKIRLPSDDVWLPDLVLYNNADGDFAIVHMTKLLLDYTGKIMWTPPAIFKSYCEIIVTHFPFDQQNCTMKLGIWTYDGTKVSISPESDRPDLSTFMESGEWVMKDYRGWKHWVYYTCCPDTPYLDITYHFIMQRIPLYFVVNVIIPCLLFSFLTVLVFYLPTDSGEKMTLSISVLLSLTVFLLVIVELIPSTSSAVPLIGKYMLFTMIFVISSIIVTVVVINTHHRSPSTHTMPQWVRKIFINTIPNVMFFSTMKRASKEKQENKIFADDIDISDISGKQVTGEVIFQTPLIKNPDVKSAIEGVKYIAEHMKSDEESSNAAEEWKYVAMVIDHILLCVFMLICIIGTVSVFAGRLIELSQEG

With 20-methyl spirolide G, the “Cross-reactivity (IC50 of 13-desmethyl spirolide C / IC50 of cyclic imine x 100)” value in data set [1] (nAChR assay, buffer) amounted to 95%. Moreover, the “oral LD50” value in data set [2] (administered with food) is given as 500 Wg/kg; in data set [2] (by gavage), 160 Wg/kg.
Usually IC50 stands for the point on the concentration scale where inhibition reaches its midpoint. As usually defined, the IC20 is the point of the concentration-response curve where the effect stands at 20%. For orientation: IC80 means the concentration needed for an effect of 80%. A word on the LD50: it is the dose expected to kill half of the subjects tested. Consider `C=C1CCCC2=NCC(C)C(C)CC23CCC(C2C=C(C)C(=O)O2)=C(C)C3/C=C(/C)C(O)CC2CCC3(CCC4(OC(CCC4(C)O)C1)O3)O2` (centres unmarked) [13-desmethyl spirolide C], for which the IC50 in [1] was 10 nM; in data set [1] (buffer), 7.4 ± 0.7 ng/mL; in [1] (buffer (PBS-BT/20% EtOH), n = 8) it was 10.8 ± 0.9 nM; in data set [1] (clam extract), 10.3 ± 1.4 ng/mL; in data set [1] (clam extract, n = 2), 14.9 ± 1.9 nM; in data set [1] (mussel extract), 11.3 ± 1.1 ng/mL. Further, the IC50 in data set [1] (mussel extract, n = 6) was 16.3 ± 1.5 nM; in data set [1] (scallop extract), 8.6 ± 1.5 ng/mL; in data set [1] (scallop extract, n = 5), 12.4 ± 2.2 nM; in data set [4], 35 nM; in data set [5] it was 100 nM. For the same molecule, the “IC20” value in data set [1] (buffer) stood at 0.2 ± 0.04 ng/mL; in data set [1] (clam extract), 0.3 ± 0.01 ng/mL; in data set [1] (mussel extract), 0.4 ± 0.1 ng/mL; in data set [1] (read-out: IC20 (nM), lower end of dynamic range, buffer), 0.4 ± 0.07 nM; in data set [1] (read-out: IC20 (nM), lower end of dynamic range, clam extract), 0.5 ± 0.01 nM; in [1] (read-out: IC20 (nM), lower end of dynamic range, mussel extract), 0.6 ± 0.2 nM. Further, the IC20 in data set [1] (read-out: IC20 (nM), lower end of dynamic range, scallop extract) was 0.5 ± 0.2 nM; in data set [1] (scallop extract) it was 0.4 ± 0.2 ng/mL. In addition, the “IC80” value in [1] (clam extract) was 160 ± 6 ng/mL; in [1] (mussel extract), 160 ± 8 ng/mL; in [1] (read-out: IC80 (nM), upper end of dynamic range, clam extract) it was 231 ± 23 nM; in data set [1] (read-out: IC80 (nM), upper end of dynamic range, mussel extract), 232 ± 11 nM; in data set [1] (read-out: IC80 (nM), upper end of dynamic range, scallop extract), 201 ± 9 nM; in [1] (scallop extract) it was 139 ± 6.5 ng/mL. For the same molecule, the “IC50 expressed as level in shellfish meat” value was 411.6 ± 54.8 Wg/kg in [1] (clam extract), 451.3 ± 42.4 Wg/kg in data set [1] (mussel extract) and 344.2 ± 60.3 Wg/kg in data set [1] (scallop extract). The “Detection efficiency of 13-desmethyl spirolide C relative to gymnodimine” value in [1] (nAChR assay, buffer) was determined as 24 times. The “% Recovery (toxin detected after storage versus freshly analyzed samples)” value in data set [3] (buffer (PBS-BT/20% EtOH), 4–8 °C) is listed as 109 ± 6%; in data set [3] (buffer (PBS-BT/20% EtOH), −20 °C), 98.1 ± 6.3%; in [3] (mussel extract, 4–8 °C), 135 ± 23%; in data set [3] (mussel extract, −20 °C), 121 ± 16%; in [3] (scallop extract, 4–8 °C), 92.0 ± 9.2%; in data set [3] (scallop extract, −20 °C) it was 85.5 ± 5.5%. Further, the “% of toxin recovered after storage in mussel homogenate” value in data set [3] (spiked mussel homogenate, two weeks, −20 °C) turned out to be 105.7 ± 5.3%. The LD50 in data set [2] was 0.5 mg/kg. In addition, the “oral LD50” value in data set [2] (administered with food) is recorded as 500 Wg/kg; in [2] (by gavage), 160 Wg/kg.
On to `C/C(=C/C=C/[C@@H](C)C(=O)O)[C@H]1CN[C@H](C(=O)O)[C@H]1CC(=O)O` [domoic acid], for which the “Interference with the nAChR-based assay (maximum and minimum binding signals)” value (“Interference with the nAChR-based assay” below) in data set [1] (10 μM) is “no effects on maximum and minimum binding signals”. Moreover, the “Interference with the Luminex nAChR-based assay” value in [1] is reported as “do not interfere”.
In the case of `CC1=C[C@@H](C2=C(C)[C@@H]3/C=C(\C)[C@@H](O)CC[C@@H]4C[C@@H](C)[C@@H](O4)/C(C)=C/CCC4=NCCC[C@@]43CC2)OC1=O` [gymnodimine, Gymnodimine], the “Assay efficiency for gymnodimine relative to 13-desmethyl spirolide C” value in data set [6] is on record as 14 fold. Also, in [7], the “Times less toxic than 13-desmethyl spirolide C” value is recorded as over 15 times. The LD50 in data set [2] was over 7.5 mg/kg.
For the molecule `C=C1[C@@H](O)[C@@H]2O[C@]3(CC[C@H](/C=C/[C@@H](C)[C@@H]4CC(C)=C[C@@]5(O[C@H](C[C@@](C)(O)C(=O)O)CC[C@H]5O)O4)O3)CC[C@H]2O[C@@H]1[C@@H](O)C[C@H](C)[C@H]1O[C@@]2(CCCCO2)CC[C@H]1C` [okadaic acid], the “Interference with the nAChR-based assay” value in data set [1] (10 μM) is “no effects on maximum and minimum binding signals”. Besides, the “Interference with the Luminex nAChR-based assay” value in data set [1] is on record as “do not interfere”. Moreover, the “Interference with nAChR based assays” value in data set [8] (previous studies) is listed as “not shown any interferences”.
As for `C=CCC(=C)/C=C/[C@@](C)(O)[C@H]1O[C@@H]2C[C@@H]3O[C@@H]4C[C@@H]5O[C@@H]6C[C@@H]7O[C@@H]8C[C@@H]9O[C@@H]%10C[C@@H]%11O[C@](C)(CCOS(=O)(=O)O)[C@@H](OS(=O)(=O)O)C[C@H]%11O[C@H]%10C[C@H]9O[C@H]8CC[C@@]7(C)O[C@@]6(C)CC[C@H](C)[C@H]5O[C@H]4C[C@@]3(C)O[C@H]2CC1=C` [yessotoxin], in data set [1] (5 μM), the “Interference with the nAChR-based assay” value is “no effects on maximum and minimum binding signals”. The “Interference with the Luminex nAChR-based assay” value in [1] is listed as “do not interfere”. Further, in [8] (previous studies), the “Interference with nAChR based assays” value is “not shown any interferences”.
Regarding Biotin-α-bungarotoxin (peptide), the maximum binding signal to background ratio in [9] was determined as 500.
Regarding azaspiracid-2, the “Interference with nAChR based assays” value in data set [8] (previous studies) is given as “not shown any interferences”.
As to azaspirazid-1, the “Interference with the nAChR-based assay” value in [1] (1 μM) was “no effects on maximum and minimum binding signals”. Moreover, the “Interference with the Luminex nAChR-based assay” value in [1] is listed as “do not interfere”.
As to brevetoxin-2, the “Interference with nAChR based assays” value in [8] is recorded as “not shown any interferences”.

B1: Biotin-α-bungarotoxin (peptide)
chain: IVCHTTATSPISAVTCPPGENLCYRKMWCDAFCSSRGKVVELGCAATCPSKKPYEEVTCCSTDKCNPHPKQRPG
Regarding B1, the “maximum binding signal to background ratio” value in data set [10] is about 2000.
